18 compounds from US20240199647A1, “ANTI-VIRAL COMPOUNDS” (Aligos Therapeutics, Inc., priority 2022, published 2024) can be followed below.

SMILES strings stand for the structures. Like-named read-outs stand apart in the source and are kept apart here.

The nature of one data set: in vitro. Particulars: human.
The nature of data set [1]: Cytotoxicity in HeLa cells without addition of OC43 virus (in parallel). Particulars: human, HeLa cells, without OC43 virus.
Data set [2] concerns human beta-coronavirus OC43. The data set can be described thus: OC43 Coronavirus Assay in HeLa cells (antiviral, cytopathic effect, cell-titer-glo). Format: cell-based. Particulars: Betacoronavirus 1, OC43, HeLa. For orientation: Cytopathic effects are the visible damage that an infection or toxin causes in cultured cells.
The next data set deals with SARS-Cov-2 3CLpro (Severe acute respiratory syndrome coronavirus 2, UniProt P0DTD1). The data set can be described thus: biochemical. To be noted: Table A, class symbols, read-out: SARS-Cov-2 (IC50).
Data set [3] relates to SARS-CoV-2 B.1.1.7 lineage. The data set is described as follows: microbe, parasite or virus in culture. It is filed as cell-based. Particulars: Severe acute respiratory syndrome coronavirus 2, Table C, SARS-CoV-2 B.1.1.7 in A549-dual_ACE2_TMPRSS2 cells, read-out: A549-dual_ACE2_TMPRSS2 (EC50).
[4] abbreviates: Table B, OC43 coronavirus in HeLa cells, class symbols, read-out: EC50.

Regarding `CN(C(=O)[C@@H](NC(=O)C(F)(F)F)C1CC(F)(F)C1)[C@@H](CC1CC1)C(=O)N1C[C@@]2(C[C@H]1C#N)Oc1cccnc1NC2=O` [Compound 201], in the data set “in vitro”, the CC50 was more than 1000 nM. The CC50 at 6 days in data set [1] is more than 10 µM. Also, the EC50 in data set [2] (setting [4]) and in data set [3] (class symbols) was 100 to 1000 nM each time. Besides, the IC50 – broadly, the concentration that gives 50% inhibition – on SARS-Cov-2 3CLpro was 20 to 200 nM.

The compound `CN(C(=O)[C@H](CC1CC1)NC(=O)C(F)(F)F)[C@@H](CC1CC1)C(=O)N1C[C@@]2(C[C@H]1C#N)Oc1cc(Cl)cc(F)c1NC2=O` [Compound 59] gave a CC50 in the data set “in vitro” of more than 1000 nM. Further, the CC50 at 6 days in data set [1] is more than 10 µM. Moreover, the EC50 in data set [2] (setting [4]) and in data set [3] (class symbols) was less than 100 nM each time. Further, the IC50 on SARS-Cov-2 3CLpro is less than 20 nM.

On to `CN(C(=O)[C@H](CC1CC1)NC(=O)C(F)(F)F)[C@@H](CC1CC1)C(=O)N1C[C@@]2(C[C@H]1C#N)Oc1ccc(F)cc1CNC2=O` [Compound 167], for which the CC50 in the data set “in vitro” is more than 1000 nM. Also, the CC50 at 6 days in data set [1] was more than 10 µM. Also, the EC50 – broadly, the midpoint of the concentration-response curve – was less than 100 nM in data set [2] (setting [4]) and 100 to 1000 nM in data set [3] (class symbols). Further, the half-maximal inhibitory concentration (IC50) on SARS-Cov-2 3CLpro is less than 20 nM.

`CC(C)C[C@@H](C(=O)N1C[C@]2(C[C@H]1C#N)C(=O)Nc1c3ccccc3nn12)N(C)C(=O)[C@H](C)NC(=O)C(F)(F)F` [Example 27, (2S)—N-[(2S)-1-[(3R,5'S)-5′-cyano-2-oxo-1H-spiro[imidazo[1,2-b]indazole-3,3′-pyrrolidin]-1′-yl]-4-methyl-1-oxopentan-2-yl]-N-methyl-2-(2,2,2-trifluoroacetamido)propanamide] came in with a CC50 in the data set “in vitro” of more than 1000 nM. Further, the CC50 at 6 days in data set [1] was more than 10 µM. For the same compound, the EC50 in data set [2] (setting [4]) is 1000 to 10000 nM; in data set [3] (cells given as a bound), more than 1000 nM. The IC50 at SARS-Cov-2 3CLpro was 20 to 200 nM.

`C[C@H](c1ccccc1)[C@H](NC(=O)C(F)(F)F)C(=O)N(C)[C@@H](CC1CC1)C(=O)N1C[C@@]2(C[C@H]1C#N)Oc1cccnc1NC2=O` [Compound 193] yielded a CC50 in the data set “in vitro” of more than 1000 nM. In data set [1], this compound registered a CC50 at 6 days of more than 10 µM. Besides, the EC50 in data set [2] (setting [4]) and in data set [3] (class symbols) was 100 to 1000 nM throughout. Also, the IC50 on SARS-Cov-2 3CLpro fell in the range of 20 to 200 nM.

In turn, `CN(C(=O)[C@H](CC1(C)CCC1)NC(=O)C(F)(F)F)[C@@H](CC1CC1)C(=O)N1C[C@@]2(C[C@H]1C#N)Oc1ncccc1NC2=O` [Compound 206] registered a CC50 in “in vitro” of more than 1000 nM. For the same compound, the CC50 at 6 days in data set [1] is more than 10 µM. In addition, the EC50 in data set [2] (setting [4]) and in data set [3] (class symbols) was less than 100 nM each time. The IC50 at SARS-Cov-2 3CLpro is less than 20 nM.

The compound `CN1C(=O)[C@]2(C[C@@H](C#N)N(C(=O)[C@H](CC3CC3)N(C)C(=O)[C@H](CC3CC3)NC(=O)C(F)(F)F)C2)Oc2cc(F)cc(F)c21` [Compound 93] came in with a CC50 in the data set “in vitro” of more than 1000 nM. In data set [1], the CC50 at 6 days was more than 10 µM. Also, the EC50 in data set [2] (setting [4]) and in data set [3] (class symbols) was less than 100 nM each time. Besides, the IC50 at SARS-Cov-2 3CLpro was less than 20 nM.

`CC(C)C[C@@H](C(=O)N1C[C@]2(CC(c3ccccc3)=NNC2=O)C[C@H]1C#N)N(C)C(=O)[C@H](C)NC(=O)C(F)(F)F` [Example 29, (S)—N—((S)-1-((3S,5R)-3-cyano-6-oxo-9-phenyl-2,7,8-triazaspiro[4.5]dec-8-en-2-yl)-4-methyl-1-oxopentan-2-yl)-N-methyl-2-(2,2,2-trifluoroacetamido)propanamide]: the CC50 in “in vitro” was more than 1000 nM. The compound also had a CC50 at 6 days in data set [1] of more than 10 µM. Besides, the EC50 in data set [2] (setting [4]) lay in the range of 1000 to 10000 nM; in data set [3] (class symbols), 100 to 1000 nM. Further, on SARS-Cov-2 3CLpro, the half-inhibitory concentration (IC50) lay within 20 to 200 nM.

Compound `C[C@H](NC(=O)C(F)(F)F)C(=O)N(C)[C@@H](CC(C)(C)C)C(=O)N1C[C@@]2(C[C@H]1C#N)Oc1cc(F)cc(F)c1NC2=O` [Compound 62] gave a CC50 in the data set “in vitro” of more than 1000 nM. In data set [1], the CC50 at 6 days is more than 10 µM. In addition, the EC50 in data set [2] (setting [4]) and in data set [3] (class symbols) was 100 to 1000 nM throughout. Moreover, on SARS-Cov-2 3CLpro, the IC50 is less than 20 nM.

For `CN(C(=O)[C@H](CC1CC1)NC(=O)C(F)(F)F)[C@@H](CC1CC1)C(=O)N1C[C@@]2(C[C@H]1C#N)Oc1cccnc1NC2=O` [Compound 66], the CC50 in “in vitro” is more than 1000 nM. This compound came in with a CC50 at 6 days in data set [1] of more than 10 µM. Also, the EC50 in data set [2] (setting [4]) and in data set [3] (class symbols) was less than 100 nM throughout. Also, at SARS-Cov-2 3CLpro, the IC50 is less than 20 nM.

In the data set “in vitro”, `CN(C)C(=O)c1ccc2c(c1)O[C@@]1(C[C@@H](C#N)N(C(=O)[C@H](CC3CC3)N(C)C(=O)[C@H](CC3CC3)NC(=O)C(F)(F)F)C1)C(=O)N2` [Compound 112, (2R,5'S)-5′-cyano-1′-((S)-3-cyclopropyl-2-((S)-3-cyclopropyl-N-methyl-2-(2,2,2-trifluoroacetamido)propanamido)propanoyl)-N,N-dimethyl-3-oxo-3,4-dihydrospiro[benzo[b][1,4]oxazine-2,3′-pyrrolidine]-7-carboxamide] returned a CC50 of more than 1000 nM. The CC50 at 6 days in data set [1] was more than 10 µM. Moreover, the figures for the EC50 in data set [2] (setting [4]) and in data set [3] (class symbols) were less than 100 nM and 100 to 1000 nM, respectively. Moreover, the concentration for half-maximal inhibition (IC50) at SARS-Cov-2 3CLpro is less than 20 nM.

In the case of `CC(C)C[C@@H](C(=O)N1C[C@@]2(C[C@H]1C#N)Oc1cc(Cl)cc(F)c1NC2=O)N(C)C(=O)[C@H](C)NC(=O)C(F)(F)F` [Compound 58], the CC50 in the data set “in vitro” was more than 1000 nM. The CC50 at 6 days in data set [1] was more than 10 µM. In addition, the EC50 in data set [2] (setting [4]) and in data set [3] (class symbols) was 100 to 1000 nM in each case. In addition, the IC50 on SARS-Cov-2 3CLpro was less than 20 nM.

In turn, `CN(C(=O)[C@H](CC1CC1)NS(=O)(=O)C1(C)CC1)[C@@H](CC1CC1)C(=O)N1C[C@@]2(C[C@H]1C#N)Oc1cccnc1NC2=O` [Compound 198] came in with a CC50 in the data set “in vitro” of more than 1000 nM. Moreover, the CC50 at 6 days in data set [1] is more than 10 µM. Besides, the results for the EC50 in data set [2] (setting [4]) and in data set [3] (class symbols) were less than 100 nM and 100 to 1000 nM, respectively. For the same compound, the IC50 at SARS-Cov-2 3CLpro was less than 20 nM.

The compound `CN(C(=O)[C@H](COCc1ccccc1)NC(=O)C(F)(F)F)[C@@H](CC1CC1)C(=O)N1C[C@@]2(C[C@H]1C#N)Oc1cccnc1NC2=O` [Compound 191] had a CC50 in the data set “in vitro” of more than 1000 nM. In addition, the CC50 at 6 days in data set [1] is more than 10 µM. In addition, the values for the EC50 in data set [2] (setting [4]) and in data set [3] (class symbols) were less than 100 nM and 100 to 1000 nM, respectively. Moreover, the IC50 on SARS-Cov-2 3CLpro is less than 20 nM.

In turn, `CN(C(=O)[C@H](CC1CC1)N1CCOC1=O)[C@@H](CC1CC1)C(=O)N1C[C@@]2(C[C@H]1C#N)Oc1cc(F)cc(F)c1NC2=O` [Compound 101] registered a CC50 in “in vitro” of more than 1000 nM. In addition, the CC50 at 6 days in data set [1] was more than 10 µM. Moreover, the EC50 is less than 100 nM in data set [2] (setting [4]) and 100 to 1000 nM in data set [3] (class symbols). In addition, on SARS-Cov-2 3CLpro, the IC50 was in the range of 20 to 200 nM.

`CN(C(=O)[C@H]1CCN(C(=O)C(F)(F)F)C1)[C@@H](CC1CC1)C(=O)N1C[C@@]2(C[C@H]1C#N)Oc1cc(F)cc(F)c1NC2=O` [Compound 129] yielded a CC50 in the data set “in vitro” of more than 1000 nM. Further, the CC50 at 6 days in data set [1] was more than 10 µM. Also, the figures for the EC50 in data set [2] and in data set [3] (class symbols) were more than 10000 nM and 100 to 1000 nM, respectively. Also, the IC50 at SARS-Cov-2 3CLpro fell in the range of 200 to 2000 nM.

In “in vitro”, `C[C@H](NC(=O)C1(F)CC1)C(=O)N(C)[C@@H](CC1CC1)C(=O)N1C[C@@]2(C[C@H]1C#N)Oc1cccnc1NC2=O` [Compound 169] returned a CC50 of more than 1000 nM. The compound also displayed a CC50 at 6 days in data set [1] of more than 10 µM. Further, the EC50 in data set [2] (setting [4]) was less than 100 nM; in data set [3] (class symbols) it was 100 to 1000 nM. For the same compound, the IC50 at SARS-Cov-2 3CLpro was less than 20 nM.

On to `C[C@H](NC(=O)C(F)(F)F)C(=O)N(C)[C@@H](Cc1ccc(F)cc1)C(=O)N1C[C@@]2(C[C@H]1C#N)Oc1cccnc1NC2=O` [Compound 181], for which the CC50 in “in vitro” was more than 1000 nM. The same compound came in with a CC50 at 6 days in data set [1] of more than 10 µM. Besides, the results for the EC50 in data set [2] (setting [4]) and in data set [3] (class symbols) were 1000 to 10000 nM and 100 to 1000 nM, respectively. Also, the IC50 on SARS-Cov-2 3CLpro is less than 20 nM.
